According to US5646014A, “Peptide, antibacterial agent, peptide gene, recombinant DNA and method for preparing the peptide” (Agriculture, Forestry and Fisheries Technical Information …, priority 1994, dated 1997):

Columns and labels:
Type in all cases: cell-based
[1] = system: Staphylococcus xylosus IAM1312; test: Growth inhibition zone on agarose plate (Test Example 2); conditions: 2 μl of 50 μM solution per well, NB plate, no sodium chloride, 2.0 mm = no zone
Protocol: (§1) The antibacterial activity of the moricin obtained in Example 1 against various bacteria was examined based on the method described in Nature, 292:246 (1981).
(§2) NB plate medium containing 0.8% agarose (optionally, sodium chloride was added thereto to give a concentration of 150 mM) was used.
(§3) 50 μM moricin solution was prepared. 2 μl of this solution was added to each well of a plate medium into which a test bacterium had been inoculated. The plate was incubated at 30° C. overnight and then diameters of the growth inhibition zones formed were measured. As a control, cecropin B1 was used. Incidentally, the diameter of the well was 2.0 mm.

[2] = system: Staphylococcus aureus ATCC6538P; test: as above; conditions: 2 μl of 50 μM solution per well, 2.0 mm = no zone
Protocol: as §1, §2, §3

[3] = system: Bacillus cereus IF03457; test: as above; conditions: 2 μl of 50 μM solution per well, NB plate, no sodium chloride, 2.0 mm = no zone
Protocol: as §1, §2, §3

[4] = system: Staphylococcus aureus IF03083; test: as above; conditions: 2 μl of 50 μM solution per well, NB plate, no sodium chloride, 2.0 mm = no zone
Protocol: as §1, §2, §3

[5] = system: Pseudomonas fluorescens IAM1179; test: as above; conditions: 2 μl of 50 μM solution per well, NB plate, no sodium chloride, 2.0 mm = no zone
Protocol: as §1, §2, §3

[6] = system: Staphylococcus epidermidis IF012993; test: as above; conditions: 2 μl of 50 μM solution per well, NB plate, no sodium chloride, 2.0 mm = no zone
Protocol: as §1, §2, §3

[7] = system: Pseudomonas aeruginosa IAM1514; test: as above; conditions: 2 μl of 50 μM solution per well, NB plate, no sodium chloride, 2.0 mm = no zone
Protocol: as §1, §2, §3

[8] = system: Bacillus subtilis IAM1107; test: as above; conditions: 2 μl of 50 μM solution per well, NB plate, no sodium chloride, 2.0 mm = no zone
Protocol: as §1, §2, §3

[9] = system: Bacillus megaterium IAM1030; test: as above; conditions: 2 μl of 50 μM solution per well, NB plate, no sodium chloride, 2.0 mm = no zone
Protocol: as §1, §2, §3

[10] = system: Escherichia coli JM109; test: as above; conditions: 2 μl of 50 μM solution per well, NB plate, no sodium chloride, well 2.0 mm, 2.0 mm = no zone
Protocol: as §1, §2, §3

[11] = system: Streptococcus pyogenes ATCC21547; test: as above; conditions: 2 μl of 50 μM solution per well, BHI plate, no sodium chloride, 2.0 mm = no zone
Protocol: as §1
When Streptococcus pyogenes was used as a test bacterium, 0.8% agarose-containing BHI plate medium was used.
as §3

[12] = system: Bacillus cereus IF03457; test: Minimum inhibitory concentration (M.I.C.), liquid medium; conditions: NB medium, 30° C. for 20 hours
Protocol: (§4) In order to examine the antibacterial activity of the moricin obtained in Example 1 against various bacteria, the mimimum inhibitory concentration (M.I.C.) of moricin was measured based on the method described in Eur. J. Biochem., 187:381-386 (1990).
(§5) When E. coli and Staphylococcus aureus subsp. aureus were used as test bacteria, brain heart infusion medium (BHI medium, Difco) was used. When Bacillus cereus was used as a test bacterium, nutrient broth medium (NB medium, Difco) was used.
(§6) To a test medium suspending a test bacterium at a concentration of 4×10^4 cells/ml, an equal volume of the same medium containing moricin at varied concentrations was added and incubated at 30° C. for 20 hours. After the incubation, an equal volume of 6% formalin was added thereto to give a two-fold dilution. Then, the degree of cell proliferation was examined by measuring the absorbance at 650 nm. As a control, cecropin B1 [Comp. Biochem. Physiol. 95B:551 (1990)] was used which is a known antibacterial peptide derived from silkworm.

[13] = system: Escherichia coli JM109; test: as above; conditions: BHI medium, 30° C. for 20 hours
Protocol: as §4, §5, §6

[14] = system: Staphylococcus aureus subsp. aureus ATCC 6538P; test: as above; conditions: BHI medium, 30° C. for 20 hours
Protocol: as §4, §5, §6

Cecropin B1: known antibacterial peptide derived from silkworm, used as a control (RWKIFKKIEKMGRNIRDGIVKAGPAIEVLGSAKAI; UniProt P04142 27-61, looked up)
Diameter of the Inhibition Zone [1]: 2.0 mm | Diameter of the Inhibition Zone ([2]; NB plate with 150 mM sodium chloride): 2.3 mm | Diameter of the Inhibition Zone ([2]; NB plate, no sodium chloride): 6.9 mm | Diameter of the Inhibition Zone [3]: 2.0 mm | Diameter of the Inhibition Zone [4]: 2.0 mm | Diameter of the Inhibition Zone [5]: 8.9 mm | Diameter of the Inhibition Zone [6]: 9.0 mm | Diameter of the Inhibition Zone [7]: 7.9 mm | Diameter of the Inhibition Zone [8]: 7.8 mm | Diameter of the Inhibition Zone [9]: 10.9 mm | Diameter of the Inhibition Zone [10]: 10.1 mm | Diameter of the Inhibition Zone [11]: 2.0 mm | M.I.C. [12]: > 16 µg/mL | M.I.C. [13]: < 1 µg/mL | M.I.C. [14]: > 16 µg/mL
